# Target: T1, HMG-CoA reductase of rat's liver microsome (Rattus norvegicus, UniProt P51639)
# T1 construct: from tissue; host or cells: liver microsomes of male Sprague-Dawley rats fed 5% cholestyramine diet for 5 days
# T1 sequence (P51639 1-887): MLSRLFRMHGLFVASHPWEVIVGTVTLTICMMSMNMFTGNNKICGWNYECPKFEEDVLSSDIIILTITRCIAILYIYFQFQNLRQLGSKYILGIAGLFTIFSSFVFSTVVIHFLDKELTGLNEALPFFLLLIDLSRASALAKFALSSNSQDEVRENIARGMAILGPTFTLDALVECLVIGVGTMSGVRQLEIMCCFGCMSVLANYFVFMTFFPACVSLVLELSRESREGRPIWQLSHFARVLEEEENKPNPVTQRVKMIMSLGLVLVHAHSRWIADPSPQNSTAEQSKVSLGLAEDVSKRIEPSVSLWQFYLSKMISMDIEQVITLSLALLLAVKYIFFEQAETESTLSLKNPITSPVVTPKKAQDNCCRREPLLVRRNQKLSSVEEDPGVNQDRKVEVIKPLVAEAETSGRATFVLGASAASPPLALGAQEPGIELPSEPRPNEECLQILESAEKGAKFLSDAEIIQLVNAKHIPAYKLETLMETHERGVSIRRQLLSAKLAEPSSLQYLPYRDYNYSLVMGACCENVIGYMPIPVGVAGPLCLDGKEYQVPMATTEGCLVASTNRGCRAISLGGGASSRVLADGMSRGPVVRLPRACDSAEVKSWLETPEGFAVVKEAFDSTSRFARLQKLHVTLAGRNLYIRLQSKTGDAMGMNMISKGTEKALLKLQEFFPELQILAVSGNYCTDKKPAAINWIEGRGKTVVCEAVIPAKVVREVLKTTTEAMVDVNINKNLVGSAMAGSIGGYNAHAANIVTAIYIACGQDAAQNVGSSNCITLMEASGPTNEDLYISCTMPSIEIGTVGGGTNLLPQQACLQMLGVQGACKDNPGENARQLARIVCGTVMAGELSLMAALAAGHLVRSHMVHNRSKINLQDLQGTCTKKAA
# Assay: Inhibitory action for HMG-CoA reductase of rat's liver microsome
# Type: biochemical, male Sprague-Dawley rats
# Details: 0.5 h; at 10-^6 M; rat liver microsome (cholestyramine-fed), d,l-[3-^14 C]-HMG-CoA 0.5 mM, NADPH 20 mM, 37° C. 30 minutes
# Description: Inhibitory action for HMG-CoA reductase of rat's liver microsome
# 5% cholestyramine diet was fed to male Sprague-Dawley rats (300-400 g of body weight) for 5 days. Activity for HMG-CoA reductase of liver microsome was measured by a variant of the method of Shapiro et al [Biochem. Biophys. Acta 370, 36(1974)]. In this method, the enzyme activity is determined by measuring the formation of ^14 C-mevalonate from a substrate [3^14 C]-HMG-CoA in the presence of NADPH. ^14 C-Mevalonate is converted into its lactone which can be isolated by silica gel thin layer chromatography developing with benzene: acetone (50:50).
# In order to measure inhibitory action for HMG-CoA reductase, test compound was dissolved in dimethyl sulfoxide and the solution was diluted with a buffer solution (100 mM phosphate buffer, 20 mM EDTA.2Na, […] dithioethritol).
# The resulting mixture was incubated with microsome (120 μg protein) at 30° C. for 15 minutes, and further incubated at 37° C. for 30 minutes after addition of d,l-[3-^14 C]-HMG-CoA (0.5 mM, 5000 dpm/nmol) and NADPH (20 mM).
row,Structure (SMILES),inhibition at 1 µM [%]
1,"COc1cc(F)ccc1-c1c(/C=C/[C@@H](O)C[C@@H](O)CC(=O)O)c2ccccc2c(=O)n1C(C)C (relative stereo) [Example 1-2, Sodium [3R*,5S*(E)]-7-[1,2-dihydro-3-(4-fluoro-2-methoxyphenyl-2-(1-methylethyl)-1-oxo-4-isoquinolinyl]-3,5-dihydroxy-6-heptenoate]",92
2,"CC(C)n1c(-c2ccc(F)cc2)c(/C=C/[C@@H](O)C[C@@H](O)CC(=O)O)c2ccccc2c1=O (relative stereo) [Example 2-2, Sodium [3R*,5S*(E)]-7-[1,2-dihydro-3-(4-fluorophenyl)-2-(1-methylethyl)-1-oxo-4-isoquinolinyl]-3,5-dihydroxy-6-heptenoate]",91.2
3,Cc1cc(F)ccc1-c1c(/C=C/[C@@H](O)C[C@@H](O)CC(=O)O)c2ccccc2c(=O)n1C(C)C (relative stereo) [Example 5-2],90.4
4,CCCn1c(-c2ccc(F)cc2C)c(/C=C/[C@@H](O)C[C@@H](O)CC(=O)O)c2ccccc2c1=O (relative stereo) [Example 10-2],90.4
5,CCCn1c(-c2ccc(F)cc2F)c(/C=C/[C@@H](O)C[C@@H](O)CC(=O)O)c2ccccc2c1=O (relative stereo) [Example 11-2],90.9
6,COC(=O)C[C@H](O)C[C@H](O)/C=C/c1c(-c2ccc(F)cc2)n(CCc2ccccc2)c(=O)c2ccccc12 (relative stereo) [Example 13-1],89.6
7,O=C(O)C[C@H](O)C[C@H](O)/C=C/c1c(-c2ccc(F)cc2)n(CCc2ccccc2)c(=O)c2ccccc12 (relative stereo) [Example 13-2],95.1
8,CCOC(=O)C[C@H](O)C[C@H](O)/C=C/c1c(-c2ccc(F)cc2)n(C)c(=O)c2ccccc12 (relative stereo) [Example 14-1],91.1
9,Cn1c(-c2ccc(F)cc2)c(/C=C/[C@@H](O)C[C@@H](O)CC(=O)O)c2ccccc2c1=O (relative stereo) [Example 14-2],94
10,CCn1c(-c2ccc(F)cc2)c(/C=C/[C@@H](O)C[C@@H](O)CC(=O)OC)c2ccccc2c1=O (relative stereo) [Example 15-1],94.2
11,CCn1c(-c2ccc(F)cc2)c(/C=C/[C@@H](O)C[C@@H](O)CC(=O)O)c2ccccc2c1=O (relative stereo) [Example 15-2],96.1
12,CCCn1c(-c2ccc(F)cc2)c(/C=C/[C@@H](O)C[C@@H](O)CC(=O)OCC)c2ccccc2c1=O (relative stereo) [Example 16-1],94.2
13,CCCn1c(-c2ccc(F)cc2)c(/C=C/[C@@H](O)C[C@@H](O)CC(=O)O)c2ccccc2c1=O (relative stereo) [Example 16-2],96.2
14,CCCCn1c(-c2ccc(F)cc2)c(/C=C/[C@@H](O)C[C@@H](O)CC(=O)OC)c2ccccc2c1=O (relative stereo) [Example 17-1],93.4
15,CCCCn1c(-c2ccc(F)cc2)c(/C=C/[C@@H](O)C[C@@H](O)CC(=O)O)c2ccccc2c1=O (relative stereo) [Example 17-2],95.8
16,CCCCCn1c(-c2ccc(F)cc2)c(/C=C/[C@@H](O)C[C@@H](O)CC(=O)OC)c2ccccc2c1=O (relative stereo) [Example 18-1],90.7
17,CCCCCn1c(-c2ccc(F)cc2)c(/C=C/[C@@H](O)C[C@@H](O)CC(=O)O)c2ccccc2c1=O (relative stereo) [Example 18-2],96.5
18,CCCCCCCn1c(-c2ccc(F)cc2)c(/C=C/[C@@H](O)C[C@@H](O)CC(=O)O)c2ccccc2c1=O (relative stereo) [Example 19-2],88

row,Structure (SMILES),inhibition at 1 µM [%]
1,COC(=O)C[C@H](O)C[C@H](O)/C=C/c1c(-c2ccc(F)cc2)n(CC(C)C)c(=O)c2ccccc12 (relative stereo) [Example 21-1],91.3
2,CC(C)Cn1c(-c2ccc(F)cc2)c(/C=C/[C@@H](O)C[C@@H](O)CC(=O)O)c2ccccc2c1=O (relative stereo) [Example 21-2],95
3,O=C(O)C[C@H](O)C[C@H](O)/C=C/c1c(-c2ccc(F)cc2)n(Cc2ccccc2)c(=O)c2ccccc12 (relative stereo) [Example 24-2],89.6
4,O=C(O)C[C@H](O)C[C@H](O)/C=C/c1c(-c2ccc(F)cc2)n(CCCc2ccccc2)c(=O)c2ccccc12 (relative stereo) [Example 32-2],89.6
5,O=C(O)C[C@H](O)C[C@H](O)/C=C/c1c(-c2ccc(F)cc2)n(CCc2ccc(Cl)cc2)c(=O)c2ccccc12 (relative stereo) [Example 33-2],95.7
6,O=C(O)C[C@H](O)C[C@H](O)/C=C/c1c(-c2ccc(F)cc2)n(CCc2ccc(F)cc2)c(=O)c2ccccc12 (relative stereo) [Example 35-2],96.9
7,Cc1ccc(CCn2c(-c3ccc(F)cc3)c(/C=C/[C@@H](O)C[C@@H](O)CC(=O)O)c3ccccc3c2=O)cc1 (relative stereo) [Example 36-2],93.2
8,COc1ccc(CCn2c(-c3ccc(F)cc3)c(/C=C/[C@@H](O)C[C@@H](O)CC(=O)O)c3ccccc3c2=O)cc1 (relative stereo) [Example 37-2],96.2
9,COc1ccccc1CCn1c(-c2ccc(F)cc2)c(/C=C/[C@@H](O)C[C@@H](O)CC(=O)O)c2ccccc2c1=O (relative stereo) [Example 38-2],95.9
10,O=C(O)C[C@H](O)C[C@H](O)/C=C/c1c(-c2ccc(F)cc2)n(CCc2cccc(F)c2)c(=O)c2ccccc12 (relative stereo) [Example 39-2],91.7
11,O=C(O)C[C@H](O)C[C@H](O)/C=C/c1c(-c2ccc(F)cc2)n(CCc2ccccc2F)c(=O)c2ccccc12 (relative stereo) [Example 40-2],92.6
12,COCCn1c(-c2ccc(F)cc2)c(/C=C/[C@@H](O)C[C@@H](O)CC(=O)O)c2ccccc2c1=O (relative stereo) [Example 41-2],88.2
13,CSCCn1c(-c2ccc(F)cc2)c(/C=C/[C@@H](O)C[C@@H](O)CC(=O)O)c2ccccc2c1=O (relative stereo) [Example 42-2],94.1
14,C=CCn1c(-c2ccc(F)cc2)c(/C=C/[C@@H](O)C[C@@H](O)CC(=O)O)c2ccccc2c1=O (relative stereo) [Example 43-2],90.6
15,CC(C)n1c(-c2ccc(F)cc2)c(/C=C/[C@@H](O)C[C@@H](O)CC(=O)O)c2c(c1=O)CCCC2 (relative stereo) [Example 47-2],93.3
16,CCCn1c(-c2ccc(F)cc2)c(/C=C/[C@@H](O)C[C@@H](O)CC(=O)O)c2c(c1=O)CCCC2 (relative stereo) [Example 48-2],96.6
17,"CCCn1c(-c2ccc(F)cc2)c(/C=C/[C@@H](O)C[C@@H](O)CC(=O)O)c2ccccc2c1=O [Example 49-2, Sodium [3R, 5S(E)]-7-[1,2-dihydro-3-(4-fluorophenyl)-2-propyl-1-oxo-4-isoquinolinyl]-3,5-dihydroxy-6-heptenoate]",97.1
18,CCCn1c(-c2ccc(F)cc2)c(/C=C/[C@@H]2C[C@@H](O)CC(=O)O2)c2ccccc2c1=O [Example 49-3],92.5

# Same assay, conditions: at 10-^6 M; rat liver microsome (cholestyramine-fed), d,l-[3-^14 C]-HMG-CoA 0.5 mM, NADPH 20 mM, 37° C. 30 minutes
row,Structure (SMILES),Inhibition (%)
1,"CC[C@H](C)C(=O)O[C@H]1C[C@@H](C)C=C2C=C[C@H](C)[C@H](CC[C@@H]3C[C@@H](O)CC(=O)O3)[C@H]21 [Mevinolin, reference compound]",75.5

# Reference: US5189043A, “Isoquinolone derivatives, their production and use” (Takeda Chemical Industries, Ltd., priority 1989, dated 1993)
